Target: T1, ErbB2 (Homo sapiens, UniProt P04626)
T1 construct: expressed in transfected cells; host or cells: MCF10A human mammary epithelial cells stably expressing HER2 (MCF10A.HER2; Ueda et al., 2004)
Experiment: EphA2 and ErbB2 phosphorylation in MCF10A cells overexpressing HER2 after ErbB2 kinase inhibitor (immunoprecipitation/immunoblot)
Type: cell-based
Conditions: 10 mg/ml AG825 for 24 or 48 hours
Procedure: For Ras and Rho/Rac pulldown assays, tumor tissue was collected, weighed, mechanically homogenized in phosphate buffered saline (PBS) pelleted, and resuspended in manufacturer recommended assay buffer (Upstate Biotechnology). Approximately […] tumor lysate was used per assay. Ras assays were performed using Raf-1 Ras binding domain-GST assay reagent (Upstate Biotechnology) as per manufacturer's protocol. Rho assays were performed using Rhotekin binding domain-GST reagents as previously described (Fang et al., 2005). For some co-immunoprecipitation assays, COST cells were co-transfected with […] each of myc-tagged erbB2 (pcDNA3-erbB2) and ephA2 (pcDNA3-EphA2) using Lipofectamine 2000 (Invitrogen). Cells were lysed in 1% NP-40 Buffer (10 mM Tris-HCl pH 7.5, 150 mM NaCl, 2 mM EDTA, 1% NP-40 plus 50 mM protease inhibitors). Lysates were used for immunoprecipitation with an anti-myc (Sigma-Aldrich) and anti-EphA2 antibodies (Santa Cruz, sc-924) antibodies. Immune complexes were resolved on SDS-PAGE and western blotted using anti-EphA2 and anti-myc antibodies. EphA2 was immunoprecipitated from MMTV-Neu cells, followed by treatment of half the samples with the 1 mM of the cross-linking agent DTSSP. Immunoprecipitates were subjected to western blot analysis using anti-ErbB2 (Neomarkers, 1:2000). EphA2 and ErbB2 were immunoprecipiated from MCF10A and MCF10A.HER2 cells as described above. […]

T1 sequence (P04626 23-1255): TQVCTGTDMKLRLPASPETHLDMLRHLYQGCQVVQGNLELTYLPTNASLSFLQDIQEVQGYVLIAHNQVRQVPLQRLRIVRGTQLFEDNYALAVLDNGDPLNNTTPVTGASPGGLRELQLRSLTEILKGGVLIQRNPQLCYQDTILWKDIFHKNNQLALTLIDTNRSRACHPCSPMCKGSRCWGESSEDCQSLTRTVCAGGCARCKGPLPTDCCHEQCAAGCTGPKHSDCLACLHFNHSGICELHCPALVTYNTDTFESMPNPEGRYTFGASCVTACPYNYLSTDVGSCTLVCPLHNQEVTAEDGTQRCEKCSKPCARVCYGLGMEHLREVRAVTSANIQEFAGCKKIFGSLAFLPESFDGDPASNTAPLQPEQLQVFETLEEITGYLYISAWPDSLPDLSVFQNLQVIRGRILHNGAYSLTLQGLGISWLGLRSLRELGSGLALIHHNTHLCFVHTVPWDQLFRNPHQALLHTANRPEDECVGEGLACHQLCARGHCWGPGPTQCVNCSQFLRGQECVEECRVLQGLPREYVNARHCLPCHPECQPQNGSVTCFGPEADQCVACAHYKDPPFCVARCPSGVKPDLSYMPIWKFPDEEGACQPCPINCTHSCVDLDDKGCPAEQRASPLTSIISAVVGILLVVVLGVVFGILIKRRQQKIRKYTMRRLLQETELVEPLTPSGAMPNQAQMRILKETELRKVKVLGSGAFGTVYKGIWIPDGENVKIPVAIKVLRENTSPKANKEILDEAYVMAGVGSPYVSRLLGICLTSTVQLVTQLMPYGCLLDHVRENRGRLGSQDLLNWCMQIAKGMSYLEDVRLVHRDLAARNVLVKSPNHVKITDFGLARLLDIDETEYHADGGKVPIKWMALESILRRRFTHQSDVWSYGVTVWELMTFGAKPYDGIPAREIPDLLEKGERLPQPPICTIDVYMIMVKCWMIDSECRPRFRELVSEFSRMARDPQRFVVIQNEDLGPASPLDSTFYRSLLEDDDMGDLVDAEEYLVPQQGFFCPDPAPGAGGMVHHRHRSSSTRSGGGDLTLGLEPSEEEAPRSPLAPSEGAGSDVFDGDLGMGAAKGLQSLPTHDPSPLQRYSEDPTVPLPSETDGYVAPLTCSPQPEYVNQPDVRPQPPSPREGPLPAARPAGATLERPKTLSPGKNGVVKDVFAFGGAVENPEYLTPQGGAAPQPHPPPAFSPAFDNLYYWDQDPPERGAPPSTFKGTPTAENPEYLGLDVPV

EphA2 phosphorylation: reduced
ErbB2 phosphorylation: reduced
SMILES: COc1cc(/C=C(\C#N)C(N)=O)cc(CSc2nc3ccccc3s2)c1O [AG825]

Reference: patent US20100254996A1, “SYNERGISTIC TREATMENT OF CELLS THAT EXPRESS EPHA2 AND ERBB2” (MEDIMMUNE, LLC, priority 2007, published 2010)
